Patent publication US12478632B2, “Method for ameliorating progression of renal fibrosis and treating renal fibrosis by 5-(2′,4′-difluorophenyl)-salicylanilide derivatives” (National Defense Medical University, priority 2021, dated 2025)

Columns and labels:
[1] = system: passively induced IgAN (P-IgAN) mice; test: passively induced IgAN (P-IgAN) mouse model; format: in vivo, C57BL/6 mice
Experimental: (§1) Two complementary mouse models of IgAN—a passive IgAN (P-IgAN) and a spontaneous IgAN in gddY mice (S-IgAN) were used to examine therapeutic effects of LCC18 on renal conditions of IgAN. […] Eight-week-old female C57BL/6 mice were injected with IgA anti-PC intraperitoneally and PnC intravenously for 14 or 28 consecutive days. Treatment with LCC18 (daily dose of 10 mg/kg body weight) dissolved in polyethylene glycol 400 (PEG 400) (Sigma-Aldrich, St. Louis, MO, USA) via an intraperitoneal (IP) route (P-IgAN+LCC18), and another group of IgAN mice was administered vehicle only (PEG 400) as the disease control group (P-IgAN+Vehicle). Mice were killed at days 14 and 28. Age-matched C57BL/6 mice injected with saline (P-WT+Saline) were used as normal controls; (2) a spontaneous IgAN in gddY (S-IgAN) mice, featuring severe glomerular and tubulointerstitial lesions, characterized by mesangial proliferation, and mesangial matrix expansion. LCC18 (S-IgAN+LCC18) or vehicle (S-IgAN+Vehicle) was administered to mice daily beginning at 8 weeks of age and continuing throughout the present invention. The gddY mice were sacrificed at 32 weeks. Age-matched BALB/c mice served as normal controls (S-WT). All animal experiments were conducted with approval of the Institutional Animal Care and Use Committee of the National Defense Medical Center, Taipei, Taiwan, and were conducted in accordance with NIH Guidelines for the Care and Use of Laboratory Animals.
(§2) For the P-IgAN model, the mice received daily at day 7 after disease induction, either LCC18 (10 mg/kg body weight) (P-IgAN+LCC18) or vehicle (P-IgAN+Vehicle) via IP throughout the study. For the S-IgAN model, LCC18 (S-IgAN+LCC18) or vehicle (S-IgAN+Vehicle) was administered to the mice daily throughout the study via IP, beginning at 8 weeks of age. […] This beneficial effect began on day 21 after disease induction and increased until day 28 when mice were sacrificed (FIG. 1C).

[2] = system: spontaneous IgAN gddY (S-IgAN) mice; test: spontaneous IgAN in gddY mice (S-IgAN) model; format: in vivo
Experimental: as §1, §2

[3] = system: bone marrow-derived DCs (BMDCs); test: DC activation (CD80 in CD11c+ cells) by flow cytometry in IgA ICs-stimulated BMDCs; format: cell-based; conditions: LCC18-treated IgA ICs-stimulated BMDCs; FIG. 3A
Experimental: (§3) FIG. 3A-3H depict that LCC18 inhibits activation of DCs and systemic immune responses in IgAN model. The fluorescence intensity of CD80^+ in gated CD11c^+ cells (within gated CD11c^+ cells, grey-filled area created by staining with an isotype-matched control antibody) determined by flow cytometry (FIG. 3A). T-cell proliferation measured by [^3H]thymidine (FIG. 3B). BMDCs were incubated for 24 h with IgA ICs and co-cultured with OT-II CD′ T cells pulsed with OVA peptide. P-IgAN mouse model (FIG. 3C, FIG. 3D, FIG. 3E). S-IgAN mouse model (FIG. 3F, FIG. 3G, FIG. 3H). CD3 T-cell proliferation in splenocytes by [^3H]thymidine uptake (FIG. 3C and FIG. 3F). Numbers of CD4^+CD44^hiCD62L^lo (FIG. 3D and FIG. 3G) and CD8^+CD44^hiCD62L^lo-hi (FIG. 3E and FIG. 3H) memory T cells among splenic cells assessed by flow cytometry. WT, wild type. #Not detectable. BMDCs, bone marrow-derived dendritic cells. Bars show the mean±SD of 7 mice per group. *p<0.05, **p<0.01, ***p<0.005, ****p<0.001. ns, no significant difference. Data of FIG. 3B-FIG. 3H were analyzed using ANOVA (with Dunnett's multiple comparisons test).

CD4+ T cells = test: OVA-specific T cell proliferation assay (BMDCs co-cultured with OT-II T cells, [3H]thymidine); format: cell-based; conditions: OT-II T cells pulsed with OVA peptide; FIG. 3B
Experimental: as §3

ASLN mice = test: accelerated, severe lupus nephritis (ASLN) model; format: in vivo, NZB/WF1 mice
Experimental: To establish ASLN model mice, eight-week-old female NZB/WF1 mice (prior to autoantibody production) were given LPS (Sigma, MO, USA) (0.8 mg/kg body weight) twice a week by intraperitoneal injection. Seven days after the first injection of LPS, seven mice each received either LCC18 (10 mg/kg body weight) or vehicle (polyethylene glycol 400) (Sigma) daily via intraperitoneal injections. Another group of age-matched female NZB/WF1 mice were injected with saline and served as normal controls. All mice were sacrificed 5 weeks after induction of the disease. All animal experiments were performed in compliance with the NIH Guidelines for the Care and Use of Laboratory Animals with approval of the Institutional Animal Care and Use Committee of The National Defense Medical Center, Taipei, Taiwan.
Next, an ASLN model in NZB/W F1 mice, which mimics acute onset of severe LN in human, was validated potential therapeutic effects of LCC18 in the present invention. LN was induced in these mice by intermittent LPS injections to simulate SLE patients following bacterial or viral infections believed to act as environmental triggers. LCC18 was administered daily after the onset of the renal condition in ASLN mice (ASLN+LCC18 mice), while ASLN mice that received vehicle only (ASLN+Vehicle mice) were used as disease control mice.
Urine samples were collected for albuminuria assessment using the ratio of urine albumin/urine creatinine (Cr). Serum blood urea nitrogen (BUN) and Cr levels were determined.
On the other hand, renal tissues were fixed in formalin buffer and paraffin-embedded and stained with hematoxylin and eosin (H&E). Scoring of renal pathology was evaluated.
Levels of anti-dsDNA antibody (Alpha Diagnostic International, TX, USA) were measured using commercial ELISA kits.
Reactive oxygen species (ROS) levels in renal tissues were measured by a lucigenin-enhanced chemiluminescence assay.

UUO mice = test: unilateral ureteral obstruction (UUO) model mimicking renal tubulointerstitial lesions; format: in vivo; conditions: days 7 and 14
Source text: To establish Unilateral ureteral obstruction (UUO) model for mimicking renal tubulointerstitial lesions (TILs), the mice (8-12 weeks of age) were anesthetized followed by a lateral incision on the back of the mouse. After the left ureter was exposed, it was tied with a silk suture at two points and permanently ligated. Sham-operated mice, which underwent an identical procedure but without ureteric ligation, were used as sham control. After 7 or 14 days, the mice were euthanized, and then, renal tissues, pelvis urine, and renal draining lymph nodes were collected.
LCC18 (10 mg/kg body weight) was administered intraperitoneally 1 day before (preventive group) or 3 days after (therapeutic group) the induction of UUO, or 1 day after the ligation of renal vessels in this model. Diseased mice that received only polyethylene glycol 400 (PEG 400) (Sigma-Aldrich, St. Louis, MO, USA) daily via intraperitoneal injections were used as the vehicle control group. All animal experiments were performed with the approval of the Institutional Animal Care and Use Committee of the National Defense Medical Center, Taiwan, in compliance with the NIH Guide for the Care and Use of Laboratory Animals.
Renal tissues were fixed in 10% buffered formalin, embedded in paraffin, and 3-μm thick sections were cut for haematoxylin and eosin (H&E) staining. Fifty glomeruli were examined in at least two renal tissue sections per slide by light microscopy at ×400 magnification. The percentage of glomeruli showing proliferation, or glomerular sclerosis was determined.
The quantitative analysis of the data obtained from hematoxylin and eosin (H&E) and Masson's trichrome staining of renal histopathological evaluation was used by quantitative imaging software (Pax-it; Paxcam, Villa Park, IL).
Further, in another embodiment, formalin-fixed and paraffin-embedded renal sections were incubated with primary antibodies followed by biotinylated secondary antibodies and avidin-biotin-peroxidase complex (Dako) for IHC staining.

CKDs' subject = test: summary of effects in kidney and serum of the CKDs' subject; format: in vivo
Source text: In summary, the LCC18 attenuates glomerular cell proliferation about 15˜35%, attenuates sclerosis and fibrosis, attenuates crescent formation about 40˜90%, attenuates fibrinoid necrosis about 40˜90% in a kidney of the CKDs' subject.
Further, the LCC18 can regulate renal function and albuminuria, downregulate serum levels of blood urea nitrogen (serum levels of BUN) about 50˜60%, serum levels of creatinine (serum levels of Cr) about 30˜40% and serum levels of IgG anti-dsDNA about 60˜70% of the CKDs' subject.

[4] = in a kidney of the CKDs' subject

For `O=c1oc2ccc(-c3ccc(F)cc3F)cc2c(=O)n1-c1cccc(C(F)(F)F)c1` [LCC18, 6-(2,4-difluorophenyl)-3-(3-(trifluoromethyl)phenyl)-2H-benzo[e][1,3]oxazine-2,4(3H)-dione], the “serum levels of BUN” value ([1]; P-IgAN+LCC18 vs P-IgAN+Vehicle, 10 mg/kg daily IP from day 7, FIG. 1A) was “Significantly lower”, the “serum levels of Cr” value ([1]; P-IgAN+LCC18 vs P-IgAN+Vehicle, 10 mg/kg daily IP from day 7, FIG. 1B) was “Significantly lower” and the “increase in number of CD4+CD44hiCD62Llo memory T cells in the spleen” value ([1]; flow cytometry, FIG. 3D) was “inhibited”. The “increase in number of CD8+CD44hiCD62Llo-hi memory T cells in the spleen” value ([1]; flow cytometry, FIG. 3E) was “inhibited”, the “severity of renal lesions (glomerular cell proliferation, sclerosis in glomeruli), H&E” value ([1]; light microscopy, vs P-IgAN+Vehicle, FIG. 1G-1I) was “markedly reduced” and the “ROS levels in renal tissues” value ([1]; vs P-IgAN+Vehicle, FIG. 2A) was “Significantly reduced”. For the same compound, the “T cell proliferation in splenocytes, [3H] thymidine uptake” value ([1]; vs P-IgAN+Vehicle, FIG. 3C) was “significantly decreased”, the “urine levels of albumin (urine albumin/Cr ratio)” value ([1]; vs P-IgAN+Vehicle, effect began on day 21 and increased until day 28, FIG. 1C) was “significantly decreased” and the “serum levels of BUN” value ([2]; S-IgAN+LCC18 vs S-IgAN+Vehicle, daily IP from 8 weeks of age, FIG. 1D) was “benefited from treatment”. For the same compound, the “serum levels of Cr” value ([2]; S-IgAN+LCC18 vs S-IgAN+Vehicle, daily IP from 8 weeks of age, FIG. 1E) was “benefited from treatment”, the “increase in splenic number of CD4+CD44hiCD62Llo memory T cells” value ([2]; flow cytometry, FIG. 3G) was “inhibited” and the “increase in splenic number of CD8+CD44hiCD62Llo-hi memory T cells” value ([2]; flow cytometry, FIG. 3H) was “inhibited”. For the same compound, the “ROS levels in renal tissues” value ([2]; vs S-IgAN+Vehicle, FIG. 2B) was “Significantly reduced”, the “T cell proliferation in splenocytes, [3H] thymidine uptake” value ([2]; vs S-IgAN+Vehicle, FIG. 3F) was “significantly decreased” and the “urine levels of albumin (urine albumin/Cr ratio)” value ([2]; vs S-IgAN+Vehicle, beginning on week 24, continuing to week 32, FIG. 1F) was “therapeutic effect was also observed”. For the same compound, the “fluorescence intensity levels of CD11c+CD80+ cells (activation marker for DCs)” value [3] was “Significantly decreased”, the “CD4+ T cell proliferation induced by IgA ICs-stimulated BMDCs” value (CD4+ T cells) was “inhibited” and the “elevated serum levels of BUN” value (ASLN mice; ASLN+LCC18 vs ASLN+Vehicle, 10 mg/kg daily IP, FIG. 4A) was “significantly inhibited”. The “elevated serum levels of Cr” value (ASLN mice; ASLN+LCC18 vs ASLN+Vehicle, 10 mg/kg daily IP, FIG. 4B) was “significantly inhibited”, the “serum anti-dsDNA levels” value (ASLN mice; ELISA, vs ASLN+Vehicle, FIG. 4G) was “Greatly reduced” and the “CD4+ T cells (CD4+CD44hiCD62Llo T memory cells) in splenocytes” value (ASLN mice; flow cytometry, FIG. 5A) was “inhibited”. The “CD8+ T cells (CD8+CD44hiCD62Llo-hi T memory cells) in splenocytes” value (ASLN mice; flow cytometry, FIG. 5B) was “inhibited”, the “Treg cell differentiation (CD4+CD25+Foxp3+) in splenocytes” value (ASLN mice; flow cytometry, FIG. 5C) was “enhanced” and the “renal levels of ROS” value (ASLN mice; lucigenin-enhanced chemiluminescence, vs ASLN+Vehicle, FIG. 6) was “significantly reduced”. For the same compound, the “albuminuria (urine albumin/urine Cr)” value (ASLN mice; vs ASLN+Vehicle, FIG. 4C) was “greatly reduced”, the “pathological changes including intrinsic cell proliferation and crescent formation, H&E scoring” value (ASLN mice; vs ASLN+Vehicle, FIG. 4D-4F) was “significantly inhibited” and the “renal fibrotic changes (H&E TILs score, Masson's trichrome fibrotic area)” value (UUO mice; 10 mg/kg IP, vs Vehicle+UUO, FIG. 7A-7D) was “greatly improved”. The “increased renal expression of Col-III, IHC” value (UUO mice; vs UUO+Vehicle, FIG. 8) was “inhibited”, the “increased renal expression of p-Smad2/3, IHC” value (UUO mice; vs UUO+Vehicle, FIG. 8) was “inhibited” and the “downregulation of serum levels of IgG anti-dsDNA” value (CKDs' subject; CKDs' subject) was 60˜70%. For the same compound, the “downregulation of serum levels of blood urea nitrogen (BUN)” value (CKDs' subject; CKDs' subject) was 50˜60%, the “downregulation of serum levels of creatinine (Cr)” value (CKDs' subject; CKDs' subject) was 30˜40% and the “attenuation of crescent formation” value (CKDs' subject; [4]) was 40˜90%. The “attenuation of fibrinoid necrosis” value (CKDs' subject; [4]) was 40˜90%, the “attenuation of glomerular cell proliferation” value (CKDs' subject; [4]) was 15˜35% and the sclerosis and fibrosis (CKDs' subject; [4]) was “attenuates”.
